Laboratory results: EPA's CvTdb concentration-time database
Each block holds one compound with its values, some of them ahead of it.

What was measured:
Rat [1] = assay: concentration in plasma after dosing; details: dosed: Wyeth-14643, 1.0 mg/kg, oral, Male, Sprague-Dawley
Rat [2] = assay: concentration in plasma after dosing; details: dosed: Wyeth-14643, 2.0 mg/kg, iv, Male, Sprague-Dawley
Rat [3] = assay: concentration in thymus after dosing; details: 2 h; dosed: Bis 2-Chloroethoxy Methane; 20 mg/kg; iv; Male; F344
Rat [4] = assay: concentration in thymus after dosing; details: 20 min; dosed: Bis 2-Chloroethoxy Methane; 20 mg/kg; iv; Female; F344
Rat [5] = assay: concentration in thymus after dosing; details: 3 h; dosed: Bis 2-Chloroethoxy Methane; 20 mg/kg; iv; Male; F344
Rat [6] = assay: concentration in liver after dosing; details: 4 h; dosed: Bis 2-Chloroethoxy Methane; 20 mg/kg; iv; Male; F344
Rat [7] = assay: concentration in heart after dosing; details: 3 h; dosed: Bis 2-Chloroethoxy Methane; 20 mg/kg; iv; Female; F344
Rat [8] = assay: concentration in thymus after dosing; details: 4 h; dosed: Bis 2-Chloroethoxy Methane; 20 mg/kg; iv; Male; F344
Rat [9] = assay: concentration in plasma after dosing; details: 6 h; dosed: Bis 2-Chloroethoxy Methane; 20 mg/kg; iv; Male; F344
Rat [10] = assay: concentration in plasma after dosing; details: dosed: Fluorotelomer alcohol 8+2, 12 mg/kg, oral, Male, Harlan Sprague Dawley
Rat [11] = assay: concentration in kidney after dosing; details: 6 h; dosed: Fluorotelomer alcohol 8+2; 80 mg/kg; oral; Female; Harlan Sprague Dawley
Rat [12] = assay: concentration in plasma after dosing; details: dosed: Fluorotelomer alcohol 8+2, 40 mg/kg, iv, Female, Harlan Sprague-Dawley
Rat [13] = assay: concentration in liver after dosing; details: 12 h; dosed: Fluorotelomer alcohol 8+2; 80 mg/kg; oral; Female; Harlan Sprague Dawley
Rat [14] = assay: concentration in liver after dosing; details: 12 h; dosed: Fluorotelomer alcohol 8+2; 80 mg/kg; oral; Female; Harlan Sprague Dawley; remark: listed apart in the source
Rat [15] = assay: concentration in plasma after dosing; details: 15 h; dosed: Di-n-butyl phthalate; 50 mg/kg; oral; Male; Sprague-Dawley
Rat [16] = assay: concentration in plasma after dosing; details: 10 h; dosed: Di-n-butyl phthalate; 50 mg/kg; oral; Male; Sprague-Dawley
Rat [17] = assay: concentration in plasma after dosing; details: 40 min; dosed: Di-n-butyl phthalate; 50 mg/kg; oral; Male; Sprague-Dawley
Rat [18] = assay: concentration in plasma after dosing; details: 3 h; dosed: Di-n-butyl phthalate; 20 mg/kg; iv; Male; Sprague-Dawley
Rat [19] = assay: concentration in plasma after dosing; details: dosed: Perfluorodecanoic acid, 2 mg/kg, iv, Male, F344
Rat [20] = assay: concentration in plasma after dosing; details: dosed: Perfluorodecanoic acid, 2 mg/kg, iv, Male, F344; remark: listed apart in the source
Rat [21] = assay: concentration in plasma after dosing; details: 22 h; dosed: Primidone; 80 mg/kg; oral; Male; F344
Rat [22] = assay: concentration in plasma after dosing; details: 12 h; dosed: Primidone; 80 mg/kg; oral; Female; Harlan Sprague-Dawley
Rat [23] = assay: concentration in heart after dosing; details: 5.333 h; dosed: Thiodiglycolic Acid; 20 mg/kg; iv; Male; Harlan Sprague Dawley
Rat [24] = assay: concentration in plasma after dosing; details: 10 min; dosed: Thiodiglycolic Acid; 20 mg/kg; iv; Male; F344
Rat [25] = assay: concentration in liver after dosing; details: 6.667 h; dosed: Thiodiglycolic Acid; 20 mg/kg; iv; Female; Harlan Sprague Dawley
Rat [26] = assay: concentration in liver after dosing; details: 20 min; dosed: Thiodiglycolic Acid; 20 mg/kg; iv; Female; Harlan Sprague Dawley
Rat [27] = assay: concentration in thymus after dosing; details: 3 h; dosed: Thiodiglycolic Acid; 20 mg/kg; iv; Female; Harlan Sprague Dawley
Rat [28] = assay: concentration in plasma after dosing; details: 10 min; dosed: Thiodiglycolic Acid; 20 mg/kg; iv; Female; Harlan Sprague Dawley
Rat [29] = assay: concentration in heart after dosing; details: 3 h; dosed: Thiodiglycolic Acid; 20 mg/kg; iv; Female; Harlan Sprague Dawley
Rat [30] = assay: concentration in plasma after dosing; details: 20 min; dosed: Thiodiglycolic Acid; 20 mg/kg; iv; Female; F344
Rat [31] = assay: concentration in heart after dosing; details: 5.333 h; dosed: Thiodiglycolic Acid; 20 mg/kg; iv; Female; Harlan Sprague Dawley
Rat [32] = assay: concentration in plasma after dosing; details: 2 h; dosed: Thiodiglycolic Acid; 20 mg/kg; iv; Female; Harlan Sprague Dawley
Rat [33] = assay: concentration in liver after dosing; details: 8 h; dosed: Thiodiglycolic Acid; 20 mg/kg; iv; Female; Harlan Sprague Dawley
Rat [34] = assay: concentration in thymus after dosing; details: 20 min; dosed: Thiodiglycolic Acid; 20 mg/kg; iv; Female; F344
Rat [35] = assay: concentration in heart after dosing; details: 4 h; dosed: Thiodiglycolic Acid; 20 mg/kg; iv; Male; Harlan Sprague Dawley
Rat [36] = assay: concentration in liver after dosing; details: 1 h; dosed: Thiodiglycolic Acid; 20 mg/kg; iv; Male; Harlan Sprague Dawley
Rat [37] = assay: concentration in heart after dosing; details: 5.333 h; dosed: Thiodiglycolic Acid; 20 mg/kg; iv; Female; Harlan Sprague Dawley; remark: listed apart in the source
Rat [38] = assay: concentration in liver after dosing; details: 3 h; dosed: Thiodiglycolic Acid; 20 mg/kg; iv; Female; Harlan Sprague Dawley
Rat [39] = assay: concentration in plasma after dosing; details: 2 h; dosed: Thiodiglycolic Acid; 20 mg/kg; iv; Male; Harlan Sprague Dawley

concentration in plasma (Rat [1]; 0.5 h): 1180 ng/mL
concentration in plasma (Rat [1]; 6 h): 202 ng/mL
concentration in plasma (Rat [2]; 5 min): 1060 ng/mL
concentration in plasma (Rat [2]; 4 h): 477 ng/mL
Structure (SMILES): Cc1cccc(Nc2cc(Cl)nc(SCC(=O)O)n2)c1C

Structure (SMILES): ClCCOCOCCCl [Bis 2-Chloroethoxy Methane]
concentration in thymus (Rat [3]): 153 ng/g
concentration in thymus (Rat [4]): 16300 ng/g
concentration in thymus (Rat [5]): 134 ng/g
concentration in liver (Rat [6]): 86.1 ng/g
concentration in heart (Rat [7]): 158 ng/g
concentration in thymus (Rat [8]): 72.9 ng/g
concentration in plasma (Rat [9]): 12.2 ng/mL

concentration in plasma (Rat [10]; 0.75 h): 294 ng/mL
concentration in plasma (Rat [10]; 12 h): 4.64 ng/mL
concentration in kidney (Rat [11]): 905 ng/g
concentration in plasma (Rat [12]; 1 h): 3650 ng/mL
concentration in plasma (Rat [12]; 24 h): 26.8 ng/mL
concentration in liver (Rat [13]): 1160 ng/g
concentration in liver (Rat [14]): 434 ng/g
Structure (SMILES): OCCC(F)(F)C(F)(F)C(F)(F)C(F)(F)C(F)(F)C(F)(F)C(F)(F)C(F)(F)F [Fluorotelomer alcohol 8+2]

Structure (SMILES): CCCCOC(=O)c1ccccc1C(=O)O [Mono-n-butyl phthalate]
concentration in plasma (Rat [15]): 530 ng/mL
concentration in plasma (Rat [16]): 797 ng/mL
concentration in plasma (Rat [17]): 14200 ng/mL
concentration in plasma (Rat [18]): 1640 ng/mL

Structure (SMILES): O=C(O)C(F)(F)C(F)(F)C(F)(F)C(F)(F)C(F)(F)C(F)(F)C(F)(F)C(F)(F)C(F)(F)F [Perfluorodecanoic acid]
concentration in plasma (Rat [19]; 5 min): 7330 ng/mL
concentration in plasma (Rat [19]; 192 h): 3130 ng/mL
concentration in plasma (Rat [19]; 2520 h): 200 ng/mL
concentration in plasma (Rat [20]; 1 h): 5930 ng/mL
concentration in plasma (Rat [20]; 528 h): 2060 ng/mL
concentration in plasma (Rat [20]; 3360 h): 272 ng/mL

Structure (SMILES): CCC1(c2ccccc2)C(=O)NC(=O)NC1=O [Phenobarbital]
concentration in plasma (Rat [21]): 2870 ng/mL
concentration in plasma (Rat [22]): 5830 ng/mL

Structure (SMILES): O=C(O)CSCC(=O)O [Thiodiglycolic Acid]
concentration in heart (Rat [23]): 383 ng/g
concentration in plasma (Rat [24]): 25400 ng/mL
concentration in liver (Rat [25]): 17000 ng/g
concentration in liver (Rat [26]): 91400 ng/g
concentration in thymus (Rat [27]): 986 ng/g
concentration in plasma (Rat [28]): 40400 ng/mL
concentration in heart (Rat [29]): 1150 ng/g
concentration in plasma (Rat [30]): 9230 ng/mL
concentration in heart (Rat [31]): 272 ng/g
concentration in plasma (Rat [32]): 1400 ng/mL
concentration in liver (Rat [33]): 737 ng/g
concentration in thymus (Rat [34]): 5640 ng/g
concentration in heart (Rat [35]): 989 ng/g
concentration in liver (Rat [36]): 162000 ng/g
concentration in heart (Rat [37]): 642 ng/g
concentration in liver (Rat [38]): 11500 ng/g
concentration in plasma (Rat [39]): 934 ng/mL
